Test system: Bax mediated cytochrome c release, Bcl-xL
Experiment: Cytochrome c release from purified mitochondria by tBid and Bax in the presence of Bcl-xL
Assay type: biochemical
Conditions: mouse liver mitochondria; 5 nM tBid, 50 nM Bax, 300 nM Bcl-xL; 15 min, 30 °C; Western blot; pre-incubation pH 9, 30 °C
Method: (A–E) in vitro reconstitution assay on liposome permeabilization. […] The treated Bcl-xL was then added to reactions containing ANTS-DPX liposomes, 100 nM Bax and 20 nM of either cBid (A,B) or cBidmt1(C,D) at pH 7. Liposome permeabilization was quantified by fluorescence after 5h incubation at 37 °C where 100% release was defined as the fluorescence change due to lipid solubilization with 1% Triton X-100. […] Error bars, std. dev. n = 3. To compare between the TCTP treated groups and the Control group statistically, two-way ANOVA test was performed for (A–D) and one-way ANOVA test was performed for (E). […] Colored asterisks above each data point indicate the statistical significance (*p < 0.05; **p < 0.01, no asterisks if p ≥ 0.05). A complete statistical analysis is provided in Supplementary Table 2–4. […] Cyto c extra-mito: in the supernatant, analysed by Western blot. […]
to highlight the pre-incubation), pH 9, 30 C° before being added to the mitochondria at their final concentrations. […] Cytochrome c was detected in the mitochondrial fraction (Cyto c intra-mito) or in the supernatant (Cyto c extra-mito) by Western blot analysis. […]
Cytochrome c release assay. […] Mitochondrial pellets and the corresponding supernatant fractions were subjected to SDS-polyacrylamide gel electrophoresis and analyzed by Western blotting for cytochrome c.

## TCTP: Translationally Controlled Tumor Protein (TCTP/tpt1), recombinant full-length
  inhibition of cytochrome c release in the presence of Bcl-xL: inhibit cytochrome c release in a concentration-dependent manner
